This is an account of results in US9999609B2, “Methods for treating or preventing fatigue” (SK Biopharmaceuticals Co., Ltd., priority 2009, dated 2018).

Holding throughout (assay type): in vivo
Series [1] has as its system hypocretin cell ablated narcoleptic mice (prepororexin/ataxin-3 transgenic) and their littermate wild-type mice. Briefly: Sleep parameters (EEG/EMG polygraph) in narcoleptic and wild-type mice after oral dosing. From the text: The polygraph signal (EEG and EMG) was captured with SleepSign (Kissei Comtech), and the sleep stage was visually scored with 10 sec epoch for wakefulness, non-REM sleep and REM sleep. Scoring criteria are: Wakefulness is characterized by desynchronized low-amplitude, mixed frequency (>4 Hz) EEG and high EMG activity. Rhythmic alpha (8-9 Hz) wave (with high EMG activities) may also appear. Non-REM is characterized by synchronized, high-amplitude, low-frequency (0.25-4 Hz) with reduced EMG activity (compared to wakefulness). EEG activity in REM sleep is similar to that in wakefulness, with desynchronized, mixed frequency low amplitude waves. Rhythmic alpha (8-9 Hz) wave with reduced EMG activities may also appear. […] is reduced even further and in many cases, completely absent. Same muscle twitching may be apparent in the EMG trace during REM sleep.
Three drug doses of the test compound (50, 100 and 150 mg/kg PO) plus vehicle, were orally administered at ZT 2 (2 hours after light on) or ZT14 (2 hours after light off), and the effects on sleep were monitored for 6 hours after the drug administration (the sleep data was collected for 30 hours after the drug injection, and are available for further analysis). The doses for modafinil were 50 and 200 mg/kg PO (plus vehicle), and modafinil was also administered at ZT 2 and […]
If the polygraph signals of some mice were not sufficient to score the sleep stage with accuracy (especially bad EMG), data from these animals were excluded, and the minimum of 5 animals (except for the highest dose of the test compound in wild-type mice in dark period, n=4) were included for the data analysis and number of animals were indicated in the figures.
Effects of test compound and modafinil on the amount of wake, non-REM sleep, REM sleep (cumulative seconds), number of episodes for each sleep stage during 6 hours, and mean wake/sleep-bout lengths (seconds) were analyzed in each animal and the mean of each parameter was calculated in each genotype. The effects of compounds on wake and sleep amounts are useful to evaluate the wake promoting potency, and the number of episodes for each sloop stage and the mean wake/sleep bout length are parameters for evaluating the sleep fragmentation. Amphetamine and modafinil, two main wake-promoting compounds currently used for the treatment of EDS associated with various etiologies (narcolepsy, idiopathic hypersomnia and secondary EDS), are known to increase wake time and prolong wake bout length in normal and EDS conditions.
A comparison of the effects between hypocretin deficient and wild-type mice is very useful in determining the wake-promotion of the test compound is dependent on the availability of hypocretins, and if there is a possible change in the sensitivity of the receptive mechanisms of test compound in narcoleptic mice due to the hypocretin ligand deficiency.

The subject of series [2] is adult human subjects with moderate or severe major depression without psychotic features. Put plainly: Randomized double-blind placebo- and active-controlled 6-week study in major depression. To be noted: 20 mg/day. The text has this:
This was a randomized, double-blind, parallel-group, active, and placebo-controlled, multicenter study conducted in the U.S. (23 centers) and Canada (4 centers). There were 2 phases: a pretreatment phase (screening/washout and a baseline visit) and a 6-week, double-blind treatment phase. Paroxetine, a positive control, was included to evaluate assay sensitivity. After washout (if needed) of prohibited substances, subjects were randomly assigned (1:1:1:1) to receive the test compound titrated to a target dose of 200 mg/day or 400 mg/day, matching placebo, or a fixed dose (20 mg/day) of paroxetine. Study drug was given twice daily for 6 weeks. Efficacy and safety were assessed weekly during the double-blind phase. Subjects completing the study underwent an Exit Interview (“Your Health and Well-Being”) and completed an Assessment of Benefits of Clinical-trial Drug-treatment (ABCD) questionnaire (U.S. sites only).

The test system of series [3] is C57BL/6J, AKR/J and DBA/2J mice. Briefly: Sleep onset and vigilance states in three inbred mouse strains after IP injection. The protocol:
At least 7 adult male mice of inbred strains C57BL/6J, AKR/J, and DBA/2J were recorded in 2 sessions of 72 continuous hours. The first 24 h in each session are considered as baseline followed the next day by the saline injection and the next day by 150 mg/kg of the test compound in the first session and 5 mg/kg d-amphetamine in the second session. The two sessions were separated by 7 days (wash-out period) and all injections were intraperitoneal (IP) and performed at light onset (9 am) in a volume of 5 ml/kg.

Regarding `NC(=O)C[S+]([O-])C(c1ccccc1)c1ccccc1` (stereo not shown) [modafinil], the effect on wakefulness entry in series [1] (active (dark) period, ZT14, PO) is on record as “dose-dependently increased wakefulness”. Further, the “wake amount in narcoleptic mice relative to wild-type baseline” value in series [1] (active period, 200 mg/kg PO) is “did not bring the wake amount to that of the wild-type baseline levels”. In addition, in series [1] (resting period, PO), the “dose of test compound whose wake promoting effect corresponds to 200 mg/kg of modafinil” value is given as around 50 mg/kg and the “effect on REM sleep” value was “did not strongly reduce REM sleep”. Moreover, the wake-promoting effects entry in series [1] (resting period, wild-type and hypocretin-deficient narcoleptic mice, PO) is reported as “modest”.

`Fc1ccc([C@@H]2CCNC[C@H]2COc2ccc3c(c2)OCO3)cc1` [paroxetine]: the “Insomnia, treatment-emergent adverse event incidence” value in series [2] (6 weeks) came out at 17%. Besides, the “ABCD questionnaire items (of 51) with statistically significant superiority to placebo” value in series [2] (post hoc analyses) is listed as 14 items.

In the case of `C[C@H](N)Cc1ccccc1` [d-amphetamine], in series [3] (5 mg/kg IP), the “amount of wakefulness compared with 150 mg/kg test compound” value was “failed to induce the same amount of wakefulness as 150 mg/kg of test compound” and the “genotype effect on induced wakefulness (AK vs D2 mice)” value is given as “genotype-dependent effect”. Also, the “dose-response of induced wakefulness (sleep latency)” value in series [3] (C57BL/6J mice, 1, 2, 4, 5, 8 mg/kg IP) was “dose-dependent manner between 1 and 5 mg/kg”.
